Laboratory results published in PubChem BioAssay (NCI).
Values joined by “and” are separate entries in the source; they are usually repeats but may differ in a detail not shown here. Equal entries are not always repeated.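 Each compound was tested at five concentrations against cells in 96-well plates for 48 hours. GI50 = concentration required for 50% inhibition of growth. TGI is the concentration that stops growth completely.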

Key:
Test in all cases: DTP human tumour cell line panel, 48 h
SNB-75 CNS = tested on: SNB-75 CNS
HL-60(TB) leukemia = tested on: HL-60(TB) leukemia
EKVX NSCLC = tested on: EKVX NSCLC
NCI-H522 lung = tested on: NCI-H522 lung
MOLT-4 leukemia = tested on: MOLT-4 leukemia
SW-620 colon = tested on: SW-620 colon
SK-MEL-5 melanoma = tested on: SK-MEL-5 melanoma
KM12 colon = tested on: KM12 colon

Structure (SMILES)	GI50 (SNB-75 CNS)	TGI (SNB-75 CNS)	GI50 (HL-60(TB) leukemia)	GI50 (EKVX NSCLC)	TGI (EKVX NSCLC)	GI50 (NCI-H522 lung)	TGI (NCI-H522 lung)	GI50 (MOLT-4 leukemia)	GI50 (SW-620 colon)	TGI (SW-620 colon)	GI50 (SK-MEL-5 melanoma)	TGI (SK-MEL-5 melanoma)	TGI (KM12 colon)	TGI (HL-60(TB) leukemia)	TGI (MOLT-4 leukemia)	GI50 (KM12 colon)
O=C(CN1CCN(c2ncnc3ccccc23)CC1)Nc1ccc(Cl)cc1C(=O)c1ccccc1Cl	0.434 µM	1.48 µM	0.415 µM	2.74 µM	7.27 µM	0.258 µM	1.55 µM	0.472 µM	0.662 µM	7.54 µM	0.5 µM	2.7 µM	5.08 µM			
COc1cc(O)c2c(O)c3c(c4c2c1[C@]1(C4)C(C)=CCCC1(C)C)[C@H](O)[C@@]1(O)CC(=O)C(C(N)=O)=C(O)[C@@]1(O)C3=O		0.794 µM			1.06 µM		0.332 µM			1.2 µM		0.399 µM	1.24 µM	0.485 µM	1.76 µM	
CC1CC2(C)ON=C(c3ccccc3)N2c2ccccc2S1 (stereo unspecified)	41.8 µM		23.5 µM	29.4 µM		27.5 µM	65.5 µM	16 µM	39.3 µM		16.9 µM	32.1 µM	42.5 µM		44.9 µM	17.5 µM
CCOC(=O)C12CCCC1(O)N(NC(=O)c1ccccc1)C(C)=C2C(=O)OC (stereo unspecified)					> 100 µM		> 100 µM			> 100 µM			> 100 µM	> 100 µM	> 100 µM	
O=C(Nc1ccccc1O)c1cccc(NC2=C(Cl)C(=O)N(Cc3ccccc3)C2=O)c1	13.5 µM	33.1 µM	1.5 µM	15.1 µM	28.8 µM	9.02 µM	28.5 µM	0.712 µM	2.12 µM	5.06 µM	6.66 µM	14.4 µM	26.6 µM	8.5 µM	4.01 µM	12.9 µM
COc1ccccc1OCC(=O)Nc1sc2c(c1C(N)=O)CCC2	> 100 µM	> 100 µM	> 100 µM	> 100 µM	> 100 µM	> 100 µM	> 100 µM	> 100 µM	> 100 µM	> 100 µM	70.6 µM	> 100 µM	> 100 µM	> 100 µM	> 100 µM	> 100 µM
COc1ccc(CCN2C(=O)C=CC2=O)cc1OC		36.1 µM			41.1 µM		3.17 µM			5.65 µM		31.5 µM	40.8 µM	21.5 µM	5.49 µM	
CN(C)c1ccc(N2Cc3ccccc3OC3=C2C(=O)c2c(O)ccc(O)c2C3=O)cn1	0.769 µM	6.93 µM	0.147 µM	0.242 µM	1.21 µM	0.0535 µM	0.217 µM	0.112 µM	0.178 µM	0.586 µM	0.722 µM	2.01 µM	3.08 µM	0.538 µM	0.843 µM	1.03 µM
COc1ccc2nc(-c3cc(-c4cc(OC)c(OC)c(OC)c4)n[nH]3)[nH]c2c1	2.23 µM	6.34 µM	1.69 µM			1.21 µM	3.98 µM	0.738 µM	2.89 µM	11.1 µM	0.462 µM	1.77 µM	3.69 µM	4.81 µM	3.27 µM	1.7 µM
N#C/C(=C\c1ccc(-c2ccc(Cl)cc2)o1)C(=O)Nc1ncc(Cc2ccc(Cl)cc2)s1	1.38 µM	3.89 µM	> 100 µM	2 µM	5.16 µM	1.94 µM	4.86 µM	3.75 µM			2.51 µM	7.41 µM	6.56 µM	> 100 µM	> 100 µM	1.83 µM
O=C1NN(c2ccc(C(=O)O)cc2)C(=O)/C1=C\c1ccc([N+](=O)[O-])o1	> 100 µM	> 100 µM	34.5 µM	> 100 µM	> 100 µM	15.7 µM	32.8 µM	33.4 µM	20 µM	47.3 µM	> 100 µM	> 100 µM	> 100 µM	91.7 µM	> 100 µM	> 100 µM
CCOc1c(Br)cc(C2C(C(=O)OC)=CN(C)C=C2C(=O)OC)cc1OC	26.1 µM	> 100 µM	37.8 µM			39.7 µM	> 100 µM	38.9 µM	38.6 µM	> 100 µM	40.5 µM	> 100 µM	> 100 µM	> 100 µM	> 100 µM	38.6 µM
CC(=O)N1N=C2/C(=C/c3ccccc3)CC(C)CC2C1c1ccccc1 (stereo unspecified)	15.6 µM	30.9 µM	8.82 µM	11.9 µM	27.3 µM	13.8 µM	31.7 µM	8.72 µM	15.2 µM	33.2 µM	11.6 µM	25.4 µM	33.9 µM	32.1 µM	28.1 µM	12.4 µM
COc1cc(C(=O)c2ccc3c(c2)OCO3)cc(OC)c1OC	1.39 µM	5.03 µM	0.609 µM	3.77 µM	> 100 µM	1.4 µM	8.84 µM	2.72 µM	0.621 µM	> 100 µM	1.88 µM	> 21.5 µM	80.8 µM	9.02 µM	> 75.1 µM	0.656 µM
O=c1cc(-c2cccc(C(F)(F)F)c2)[nH]c2cc3c(cc12)OCO3					50 µM		> 100 µM	0.338 µM	0.326 µM	50 µM and > 100 µM	1.27 µM	4.41 µM	13 µM and > 100 µM	0.705 µM	50 µM and > 100 µM	0.486 µM
Oc1ccccc1-c1nn(CNc2cccc(Cl)c2)c(=S)o1				67.2 µM	> 100 µM	> 100 µM	> 100 µM		27.2 µM	> 100 µM	89.2 µM	> 100 µM	> 100 µM		> 100 µM	37.2 µM
CC1=CC(=NC(=O)CBr)C=C/C1=N\S(=O)(=O)c1ccccc1	13.5 µM	30.4 µM	2.78 µM			1.61 µM	3.72 µM	2.75 µM	3.03 µM	10.1 µM	1.79 µM	3.98 µM	31.2 µM	7.94 µM	9.65 µM	16.8 µM
